According to paper PMC5431875, “In situ click chemistry generation of cyclooxygenase-2 inhibitors” (Nature Communications, 2017):
Read-outs that look alike come from different tables or passages of the source.

Legend:
COX-2 in HCA-7 cells = biological target: T1, COX-2 in HCA-7 cells (Homo sapiens, UniProt P35354); assay: Cellular COX-2 inhibitory activity (PGE2 ELISA) in HCA-7 cells; type: cell-based; details: mean of three determinations, read-out: Cell COX-2 IC50
T1 construct: endogenous in cells; host or cells: HCA-7
T1 sequence (P35354 18-604): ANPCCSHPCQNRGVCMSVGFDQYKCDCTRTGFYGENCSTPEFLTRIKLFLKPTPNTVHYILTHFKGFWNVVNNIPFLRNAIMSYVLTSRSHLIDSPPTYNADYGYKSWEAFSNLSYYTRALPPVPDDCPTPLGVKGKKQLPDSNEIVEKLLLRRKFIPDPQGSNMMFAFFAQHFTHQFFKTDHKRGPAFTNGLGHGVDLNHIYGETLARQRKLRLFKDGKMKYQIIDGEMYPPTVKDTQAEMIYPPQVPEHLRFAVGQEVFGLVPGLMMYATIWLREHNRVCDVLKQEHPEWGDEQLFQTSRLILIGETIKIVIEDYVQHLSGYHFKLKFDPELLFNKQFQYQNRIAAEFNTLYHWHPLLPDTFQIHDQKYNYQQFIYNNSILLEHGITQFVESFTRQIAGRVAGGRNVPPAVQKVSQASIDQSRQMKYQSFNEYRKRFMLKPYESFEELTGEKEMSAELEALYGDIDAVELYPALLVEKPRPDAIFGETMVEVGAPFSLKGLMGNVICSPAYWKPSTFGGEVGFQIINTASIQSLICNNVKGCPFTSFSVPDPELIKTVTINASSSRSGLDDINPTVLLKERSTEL
Method: Based on the in vitro COX-2 inhibitory data, seventeen compounds (Table 2) were selected and further evaluated for their cellular COX-2 inhibitory activity in COX-2 expressing colorectal cancer cell line HCA-7. […]
HCA-7 cells (colorectal cancer cell line, COX-2 expression is confirmed with immunoblotting). The HCA-7 cells were cultured in T75 flasks using DMEM/F12 (1:1) medium supplemented with 10% (v/v) fetal bovine […]
were washed three times for 5 min with 1 ml PBS. Cells were negatively tested for mycoplasma contamination either by the vendor or in house. […]
vehicle (solvent) at concentration range of 10−9 M to 10−3 M. After 30 min incubation the reaction was stopped on ice and supernatants were taken and COX-2 mediated production of PGE2 was immediately determined […]
concentration is quantified by following manufacturer assay procedure. All experiments were done three times and ±s.e.m. were calculated.
The PRISM5 software was used to calculate IC50 values.

Stability in human serum = type: in vitro ADME; details: 37 °C, up to 30 h
Method: Stock solutions of compounds 5, 14, 18 and 21 (10 mM) were prepared in DMSO for molecular biology. A Solution of each compound (10 mM) was added to freshly thaw human serum (from human male AB plasma, USA origin, sterile-filtered, Sigma– Aldrich) at 37 °C; the final concentration of the compound was 100 µM. The resulting solution was incubated at 37 °C and at various time intervals (0 to 30 h) 200 µL reaction mixture samples was taken and added to 200 µL of acetonitrile containing 0.1% trifluoroacetic acid in order to deproteinize the proteins. Into each sample mixture, 10 μL of an internal standard solution (2 mM solution in methanol) was added. Sample mixture was sonicated, vortexed and then centrifuged for 15 min. at 2150 × g. The clear supernatant was transferred into the fresh tube for LCMS analysis, with a similar method described for the in situ click LC-MS studies. […]

Stability in rat serum = type: in vitro ADME; details: 37 °C, up to 30 h
recombinant human COX-2 = biological target: T2, recombinant human COX-2 (Homo sapiens, UniProt P35354); assay: COX inhibitor assay (Cayman 700100), COX-2
T2 sequence (P35354 18-604): T1 sequence (P35354 18-604)
Method: (§1) Each compound was assayed in concentration range of 10^−9 M to 10^−3 M, in triplicate. PRISM5 software was used to calculate IC50 values.

ovine COX-1 = biological target: T3, ovine COX-1 (Ovis aries, UniProt P05979); assay: COX inhibitor assay (Cayman 700100), COX-1
T3 sequence (P05979 25-600): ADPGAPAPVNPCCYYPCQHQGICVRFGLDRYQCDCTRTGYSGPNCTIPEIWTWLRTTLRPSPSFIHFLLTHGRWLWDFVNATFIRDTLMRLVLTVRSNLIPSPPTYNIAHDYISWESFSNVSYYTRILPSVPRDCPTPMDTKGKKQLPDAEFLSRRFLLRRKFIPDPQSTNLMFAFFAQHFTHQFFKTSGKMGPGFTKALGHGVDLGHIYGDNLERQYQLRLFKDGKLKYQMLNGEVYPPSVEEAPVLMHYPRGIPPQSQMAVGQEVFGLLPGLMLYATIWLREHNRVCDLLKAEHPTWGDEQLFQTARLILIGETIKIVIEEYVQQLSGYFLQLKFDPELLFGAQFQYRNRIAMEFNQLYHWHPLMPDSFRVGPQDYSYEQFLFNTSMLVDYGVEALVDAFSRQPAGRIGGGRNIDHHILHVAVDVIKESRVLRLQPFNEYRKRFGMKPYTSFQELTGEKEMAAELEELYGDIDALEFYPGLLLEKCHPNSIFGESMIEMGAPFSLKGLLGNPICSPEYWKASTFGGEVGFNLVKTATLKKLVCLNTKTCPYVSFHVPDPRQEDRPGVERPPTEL
Method: as §1

[1] = test system: carrageenan-induced rat paw edema; assay: Carrageenan-induced rat paw edema assay; type: in vivo; details: for Change in behavior and toxic effects: oral doses of the edema assay; for ED50 anti-inflammatory activity: p.o.; for times more potent than celecoxib: versus celecoxib ED50 at 3 h
Method: In vivo anti-inflammatory activity was measured using a carrageenan-induced rat paw edema assay. In brief, three to five male Sprague–Dawley rats, 8–11-weeks-old, weighing 180–200 g (Charles-River Canada) were used in each group. […] A dose–response curve was constructed using GraphPad Prism 5.0 and ED50were calculated. […] In vivo anti-inflammatory assays were carried using a protocol approved by the Health Sciences Animal Welfare Committee, University of Alberta, Edmonton, Canada.

Row | SMILES | IC50 (COX-2 in HCA-7 cells) [µM] | Stability in human serum (Stability in human serum) | Stability in rat serum (Stability in rat serum) | IC50 (recombinant human COX-2) [µM] | COX-2 SI (selectivity index) (recombinant human COX-2; (COX-1 IC50)/(COX-2 IC50)) | IC50 (ovine COX-1) [µM] | melting point [°C] | Change in behavior and toxic effects [1] | ED50 anti-inflammatory activity ([1]; 3 h time point) [mg/kg] | ED50 anti-inflammatory activity ([1]; 5 h time point) [mg/kg] | times more potent than celecoxib [1] [times] | COX-2 SI (selectivity index) (recombinant human COX-2)
1 | [N-]=[N+]=Nc1cc(-c2ccccc2)nn1-c1ccccc1 [Compound 5, 5-azido-1,3-diphenyl-1H-pyrazole] | > 1 | no significant degradation | no significant degradation | 18.1 | >5.5 | > 100 | – | – | – | – | – | –
2 | Clc1ccc(-c2cn(-c3cc(-c4ccccc4)nn3-c3ccccc3)nn2)cc1 [Compound 8] | 4 | – | – | 0.16 | >625 | > 100 | 134 to 136 | – | – | – | – | –
3 | Fc1ccc(-c2cn(-c3cc(-c4ccccc4)nn3-c3ccccc3)nn2)cc1 [Compound 9] | 2 | – | – | 0.14 | >714.2 | > 100 | 129 to 131 | – | – | – | – | –
4 | Cc1ccc(-c2cn(-c3cc(-c4ccccc4)nn3-c3ccccc3)nn2)cc1 [Compound 11] | 2 | – | – | 3.2 | >31.2 | > 100 | 125 to 127 | – | – | – | – | –
5 | Cc1cc(-n2cc(-c3ccccc3)nn2)n(-c2ccc(S(C)(=O)=O)cc2)n1 [Compound 16] | – | – | – | 10 | >10 | > 100 | 146 to 148 | – | – | – | – | –
6 | Cc1cc(-n2cc(-c3ccc(F)cc3)nn2)n(-c2ccc(S(C)(=O)=O)cc2)n1 [Compound 18, 4-(4-fluorophenyl)-1-[2-(4-methanesulfonyl-phenyl)-5-methyl-2H-pyrazol-3-yl]-1H [1,2,3]triazole] | 0.06 | – | – | 0.09 | – | > 100 | – | No unusual change in behavior and toxic effects | 0.44 | 0.99 | > 25 | >1,111.1
7 | Cc1ccc(-c2cn(-c3cc(C)nn3-c3ccc(S(C)(=O)=O)cc3)nn2)cc1 [Compound 20] | – | – | – | 19 | >5.26 | > 100 | – | – | – | – | – | –
8 | Cc1cc(-n2cc(-c3ccc(N)cc3)nn2)n(-c2ccc(S(C)(=O)=O)cc2)n1 [Compound 21, 4-{1-[2-(4-methanesulfonyl-phenyl)-5-methyl-2H-pyrazol-3-yl]-1H-[1,2,3]triazol-4-yl}-phenylamine] | 0.08 | – | – | 0.05 | – | > 100 | – | No unusual change in behavior and toxic effects | 0.12 | 0.34 | > 25 | >2,000
9 | Cc1cc(-n2cc(-c3ccc(C(F)(F)F)cc3)nn2)n(-c2ccc(S(C)(=O)=O)cc2)n1 [Compound 22] | 0.15 | – | – | 0.22 | >454.5 | > 100 | 209 to 211 | – | – | – | – | –
10 | Cc1cc(-n2cc(CC(C)C)nn2)n(-c2ccc(S(C)(=O)=O)cc2)n1 [Compound 23] | – | – | – | 6.2 | >16.1 | > 100 | 150 to 153 | – | – | – | – | –
11 | Cc1cc(-n2cc(CN3CCCCC3)nn2)n(-c2ccc(S(C)(=O)=O)cc2)n1 [Compound 25] | 11 | – | – | 5.2 | >19.2 | > 100 | – | – | – | – | – | –
12 | CS(=O)(=O)c1ccc(-n2nc(-c3ccccc3)cc2N=[N+]=[N-])cc1 [Compound 27, 5-azido-1-(4-methanesulfonyl-phenyl)-3-phenyl-1H-pyrazole] | – | no significant degradation | no significant degradation | – | – | – | – | – | – | – | – | –
13 | CS(=O)(=O)c1ccc(-n2nc(-c3ccccc3)cc2-n2cc(-c3ccc(N)cc3)nn2)cc1 [Compound 29] | 0.1 | – | – | 2.7 | >37.0 | > 100 | – | – | – | – | – | –
14 | Cc1cc(-n2cc(-c3ccc(N)cc3)nn2)n(-c2ccccc2)n1 [Compound 33] | 0.1 | – | – | 8.6 | 6.73 | 57.9 | – | – | – | – | – | –

Continued, in another order:

Row | IC50 (COX-2 in HCA-7 cells) [µM] | Stability in human serum (Stability in human serum) | Stability in rat serum (Stability in rat serum) | IC50 (recombinant human COX-2) [µM] | COX-2 SI (selectivity index) (recombinant human COX-2; (COX-1 IC50)/(COX-2 IC50)) | IC50 (ovine COX-1) [µM] | melting point [°C] | SMILES | Change in behavior and toxic effects [1] | ED50 anti-inflammatory activity ([1]; 3 h time point) [mg/kg] | ED50 anti-inflammatory activity ([1]; 5 h time point) [mg/kg] | times more potent than celecoxib [1] [times] | COX-2 SI (selectivity index) (recombinant human COX-2)
15 | 3 | – | – | 0.9 | >111.1 | > 100 | – | c1ccc(-c2cn(-c3cc(-c4ccccc4)nn3-c3ccccc3)nn2)cc1 [Compound 7] | – | – | – | – | –
16 | – | – | – | 15.2 | >6.5 | > 100 | – | COc1ccc(-c2cn(-c3cc(-c4ccccc4)nn3-c3ccccc3)nn2)cc1 [Compound 10] | – | – | – | – | –
17 | – | – | – | 18 | >5.5 | > 100 | 130 to 133 | CCc1ccc(-c2cn(-c3cc(-c4ccccc4)nn3-c3ccccc3)nn2)cc1 [Compound 12] | – | – | – | – | –
18 | 1 | – | – | 1.1 | >90.9 | > 100 | 145 to 148 | Cc1cc(-n2cc(-c3ccc(Cl)cc3)nn2)n(-c2ccc(S(C)(=O)=O)cc2)n1 [Compound 17] | – | – | – | – | –
19 | – | – | – | 26 | >3.84 | > 100 | – | COc1ccc(-c2cn(-c3cc(C)nn3-c3ccc(S(C)(=O)=O)cc3)nn2)cc1 [Compound 19] | – | – | – | – | –
20 | 0.7 | – | – | 0.82 | >121.9 | > 100 | 172 to 174 | Cc1cc(-n2cc(CN3CCOCC3)nn2)n(-c2ccc(S(C)(=O)=O)cc2)n1 [Compound 24] | – | – | – | – | –
21 | 0.2 | – | – | 0.14 | >714.2 | > 100 | – | CS(=O)(=O)c1ccc(-n2nc(-c3ccccc3)cc2-n2cc(-c3ccc(F)cc3)nn2)cc1 [Compound 28] | – | – | – | – | –
22 | – | no significant degradation | no significant degradation | – | – | – | 123 to 125 | Cc1cc(N=[N+]=[N-])n(-c2ccccc2)n1 [Compound 31, 5-azido-3-methyl-1-phenyl-1H-pyrazole] | – | – | – | – | –
23 | 0.1 | – | – | 12 | 3.7 | 45.5 | – | Cc1cc(-n2cc(-c3ccc(F)cc3)nn2)n(-c2ccccc2)n1 [Compound 32] | – | – | – | – | –
